According to ChEMBL document CHEMBL4665709, “Rational Avoidance of Protease Cleavage Sites and Symmetrical End-Tagging Significantly Enhances the Stability and Therapeutic Potential of Antimicrobial Peptides” (J Med Chem, 2020):
Where a SMILES comes first, the peptide text is derived from it.

How the values were obtained:
[1] = Therapeutic index, ratio of MHC for human RBC to geometric mean of peptide MIC for Salmonella typhimurium 14028; type: toxicity; settings: human red blood cells (RBC), read-out: TI
Escherichia coli [2] = assay: Antibacterial activity against Escherichia coli ATCC 25922 after 18 to 24 hrs in presence of 8 uM Zn2+ by CLSI-based broth microdilution method; type: functional; settings: time hrs 18-24
[3] = tested on: Staphylococcus epidermidis; assay: Antibacterial activity against Staphylococcus epidermidis ATCC 12228 after 18 to 24 hrs by CLSI-based broth microdilution method; type: functional; settings: time hrs 18-24
Staphylococcus aureus [4] = assay: Antibacterial activity against Staphylococcus aureus ATCC 29213 after 18 to 24 hrs in presence of 6 uM NH4+ by CLSI-based broth microdilution method; type: functional; settings: time hrs 18-24
Escherichia coli [5] = assay: Antibacterial activity against Escherichia coli ATCC 25922 after 18 to 24 hrs by CLSI-based broth microdilution method; type: functional; settings: time hrs 18-24
[6] = Therapeutic index, ratio of MHC for human RBC to geometric mean of peptide MIC for Staphylococcus aureus 11011; type: toxicity; settings: human red blood cells (RBC), read-out: TI
Staphylococcus aureus [7] = assay: Antibacterial activity against Staphylococcus aureus ATCC 29213 after 18 to 24 hrs in presence of 25% human serum by CLSI-based broth microdilution method; type: functional; settings: time hrs 18-24
[8] = Therapeutic index, ratio of MHC for human RBC to geometric mean of peptide MIC for Escherichia coli ATCC 25922; type: toxicity; settings: human red blood cells (RBC), read-out: TI
Staphylococcus aureus [9] = assay: Antibacterial activity against Staphylococcus aureus 11011 after 18 to 24 hrs by CLSI-based broth microdilution method; type: functional; settings: time hrs 18-24
Escherichia coli [10] = assay: Antibacterial activity against Escherichia coli ATCC 25922 after 18 to 24 hrs in presence of 1 mM Mg2+ by CLSI-based broth microdilution method; type: functional; settings: time hrs 18-24
Staphylococcus aureus [11] = assay: Antibacterial activity against Staphylococcus aureus ATCC 29213 after 18 to 24 hrs by CLSI-based broth microdilution method; type: functional; settings: time hrs 18-24
[12] = Therapeutic index, ratio of MHC for human RBC to geometric mean of peptide MIC for Salmonella typhimurium 7731; type: toxicity; settings: human red blood cells (RBC), read-out: TI
[13] = Cytotoxicity against HEK-293T cells assessed as cell viability at 128 uM by MTT assay relative to control; type: cell-based; settings: human, read-out: Activity
Erythrocyte = assay: Hemolytic activity in human RBC assessed as hemolysis; type: ADME, cell-based
[14] = Cytotoxicity against mouse RAW264.7 cells assessed as cell viability at 128 uM by MTT assay relative to control; type: cell-based; settings: read-out: Activity
Staphylococcus aureus [15] = assay: Antibacterial activity against Staphylococcus aureus ATCC 29213 after 18 to 24 hrs in presence of 1 mM Mg2+ by CLSI-based broth microdilution method; type: functional; settings: time hrs 18-24
Salmonella typhimurium [16] = assay: Antibacterial activity against Salmonella typhimurium 14028 after 18 to 24 hrs by CLSI-based broth microdilution method; type: functional, Salmonella enterica subsp. enterica serovar Typhimurium; settings: Salmonella enterica, time hrs 18-24
Escherichia coli [17] = assay: Antibacterial activity against Escherichia coli ATCC 25922 after 18 to 24 hrs in presence of 100% human serum by CLSI-based broth microdilution method; type: functional; settings: time hrs 18-24
Staphylococcus aureus [18] = assay: Antibacterial activity against Staphylococcus aureus ATCC 29213 after 18 to 24 hrs in presence of 8 uM Zn2+ by CLSI-based broth microdilution method; type: functional; settings: time hrs 18-24
[19] = Therapeutic index, ratio of MHC for human RBC to geometric mean of peptide MIC for Enterococcus faecalis ATCC 29212; type: toxicity; settings: human red blood cells (RBC), read-out: TI
Salmonella enterica = assay: Antibacterial activity against Salmonella choleraesuis 503 after 18 to 24 hrs by CLSI-based broth microdilution method; type: functional; settings: time hrs 18-24
Escherichia coli [20] = assay: Antibacterial activity against Escherichia coli UB1005 after 18 to 24 hrs by CLSI-based broth microdilution method; type: functional; settings: time hrs 18-24
Enterococcus faecalis = assay: Antibacterial activity against Enterococcus faecalis ATCC 29212 after 18 to 24 hrs by CLSI-based broth microdilution method; type: functional; settings: time hrs 18-24
[21] = Therapeutic index, ratio of MHC for human RBC to geometric mean of peptide MIC for Streptococcus agalactiae H92; type: toxicity; settings: human red blood cells (RBC), read-out: TI
[22] = Therapeutic index, ratio of MHC for human RBC to geometric mean of peptide MIC for Staphylococcus epidermidis ATCC 12228; type: toxicity; settings: human red blood cells (RBC), read-out: TI
Staphylococcus aureus [23] = assay: Antibacterial activity against Staphylococcus aureus ATCC 29213 after 18 to 24 hrs in presence of 100% human serum by CLSI-based broth microdilution method; type: functional; settings: time hrs 18-24
[24] = Therapeutic index, ratio of MHC for human RBC to geometric mean of peptide MIC for Salmonella choleraesuis 503; type: toxicity; settings: human red blood cells (RBC), read-out: TI
Escherichia coli [25] = assay: Antibacterial activity against Escherichia coli ATCC 25922 after 18 to 24 hrs in presence of 6 uM Fe3+ by CLSI-based broth microdilution method; type: functional; settings: time hrs 18-24
Staphylococcus aureus [26] = assay: Antibacterial activity against Staphylococcus aureus ATCC 29213 after 18 to 24 hrs in presence of 4.5 mM K+ by CLSI-based broth microdilution method; type: functional; settings: time hrs 18-24
[27] = Antibacterial activity against Salmonella pullorum 7913 after 18 to 24 hrs by CLSI-based broth microdilution method; type: functional, Salmonella enterica subsp. enterica serovar Pullorum; settings: Salmonella enterica, time hrs 18-24
Streptococcus agalactiae = assay: Antibacterial activity against Streptococcus agalactiae H92 after 18 to 24 hrs by CLSI-based broth microdilution method; type: functional; settings: time hrs 18-24
[28] = Therapeutic index, ratio of MHC for human RBC to geometric mean of peptide MIC for Escherichia coli UB1005; type: toxicity; settings: human red blood cells (RBC), read-out: TI
[29] = Hemolytic activity in human RBC assessed as hemolysis at 1 to 128 uM relative to control; type: ADME, cell-based, Erythrocyte; settings: human red blood cells (RBC), dose 1-128 µM, read-out: Activity
[30] = Therapeutic index, ratio of MHC for human RBC to geometric mean of peptide MIC for Staphylococcus aureus ATCC 29213; type: toxicity; settings: human red blood cells (RBC), read-out: TI
Escherichia coli [31] = assay: Antibacterial activity against Escherichia coli ATCC 25922 after 18 to 24 hrs in presence of 150 mM Na+ by CLSI-based broth microdilution method; type: functional; settings: time hrs 18-24
[32] = Stability of compound at 100 degreeC after 30 to 90 mins; type: physicochemical; settings: time 30-90 min
Escherichia coli [33] = assay: Antibacterial activity against Escherichia coli ATCC 25922 after 18 to 24 hrs in presence of 4.5 mM K+ by CLSI-based broth microdilution method; type: functional; settings: time hrs 18-24
Staphylococcus aureus [34] = assay: Antibacterial activity against methicillin-resistant Staphylococcus aureus 43300 after 18 to 24 hrs by CLSI-based broth microdilution method; type: functional; settings: time hrs 18-24
Staphylococcus aureus [35] = assay: Antibacterial activity against Staphylococcus aureus ATCC 29213 after 18 to 24 hrs in presence of 150 mM Na+ by CLSI-based broth microdilution method; type: functional; settings: time hrs 18-24
[36] = Therapeutic index, ratio of MHC for human RBC to geometric mean of peptide MIC for Salmonella pullorum 7913; type: toxicity; settings: human red blood cells (RBC), read-out: TI
Escherichia coli [37] = assay: Antibacterial activity against Escherichia coli ATCC 25922 after 18 to 24 hrs in presence of 6 uM NH4+ by CLSI-based broth microdilution method; type: functional; settings: time hrs 18-24
Staphylococcus aureus [38] = assay: Antibacterial activity against Staphylococcus aureus ATCC 29213 after 18 to 24 hrs in presence of 50% human serum by CLSI-based broth microdilution method; type: functional; settings: time hrs 18-24
Escherichia coli [39] = assay: Antibacterial activity against Escherichia coli ATCC 25922 after 18 to 24 hrs in presence of 25% human serum by CLSI-based broth microdilution method; type: functional; settings: time hrs 18-24
Salmonella typhimurium [40] = assay: Antibacterial activity against Salmonella typhimurium 7731 after 18 to 24 hrs by CLSI-based broth microdilution method; type: functional, Salmonella enterica subsp. enterica serovar Typhimurium; settings: Salmonella enterica, time hrs 18-24
Escherichia coli [41] = assay: Antibacterial activity against Escherichia coli ATCC 25922 after 18 to 24 hrs in presence of 50% human serum by CLSI-based broth microdilution method; type: functional; settings: time hrs 18-24
Staphylococcus aureus [42] = assay: Antibacterial activity against Staphylococcus aureus ATCC 29213 after 18 to 24 hrs in presence of 6 uM Fe3+ by CLSI-based broth microdilution method; type: functional; settings: time hrs 18-24
[43] = Therapeutic index, ratio of MHC for human RBC to geometric mean of peptide MIC for methicillin-resistant Staphylococcus aureus 43300; type: toxicity; settings: human red blood cells (RBC), read-out: TI

CC[C@H](C)[C@H](N)C(=O)N[C@@H](CS)C(=O)N[C@@H](CCCNC(=N)N)C(=O)N[C@@H](CCCCN)C(=O)N1CCC[C@H]1C(=O)N[C@H](C(=O)N[C@H](C(=O)N[C@@H](CS)C(=O)N[C@@H](CCCNC(=N)N)C(=O)N[C@@H](CCCCN)C(=O)N1CCC[C@H]1C(=O)N[C@H](C(=O)N[C@H](C(=O)N[C@@H](CS)C(=O)N[C@@H](CCCNC(=N)N)C(=O)N[C@@H](CCCCN)C(=O)N1CCC[C@H]1C(=O)N[C@H](C(=O)N[C@H](C(=O)N[C@@H](CS)C(=O)N[C@@H](CCCNC(=N)N)C(=O)N[C@@H](CCCCN)C(=O)N1CCC[C@H]1C(=O)N[C@H](C(N)=O)[C@@H](C)CC)[C@@H](C)CC)[C@@H](C)CC)[C@@H](C)CC)[C@@H](C)CC)[C@@H](C)CC)[C@@H](C)CC (H-ICRKPIICRKPIICRKPIICRKPI-NH2)
8 µM: MIC (Escherichia coli [10]) | MIC (Salmonella enterica) | MIC (Escherichia coli [41])
2: selectivity ratio [6] | selectivity ratio [19] | selectivity ratio [21] | selectivity ratio [22] | selectivity ratio [30] | selectivity ratio [43]
32: selectivity ratio [1] | selectivity ratio [8] | selectivity ratio [12] | selectivity ratio [24] | selectivity ratio [28] | selectivity ratio [36]
< 5%: hemolysis at up to 128 µM [29]
> 128 µM: MHC (Erythrocyte)
> 64 µM: MIC [3] | MIC (Staphylococcus aureus [4]) | MIC (Staphylococcus aureus [7]) | MIC (Staphylococcus aureus [9]) | MIC (Staphylococcus aureus [11]) | MIC (Staphylococcus aureus [15]) | MIC (Staphylococcus aureus [18]) | MIC (Enterococcus faecalis) | MIC (Staphylococcus aureus [23]) | MIC (Staphylococcus aureus [26]) | MIC (Streptococcus agalactiae) | MIC (Staphylococcus aureus [34]) | MIC (Staphylococcus aureus [35]) | MIC (Staphylococcus aureus [38]) | MIC (Staphylococcus aureus [42])
2 µM: MIC (Escherichia coli [2]) | MIC (Escherichia coli [5]) | MIC (Salmonella typhimurium [16]) | MIC (Escherichia coli [20]) | MIC (Escherichia coli [37])
Stable: Stabilty [32]
4 µM: MIC (Escherichia coli [25]) | MIC (Escherichia coli [33]) | MIC (Escherichia coli [39]) | MIC (Salmonella typhimurium [40])
16 µM: MIC (Escherichia coli [17]) | MIC [27]
32 µM: MIC (Escherichia coli [31])
> 90%: viability at 128 µM [13] | viability at 128 µM [14]

CC[C@H](C)[C@H](N)C(=O)N[C@H](C(=O)N[C@@H](CS)C(=O)N[C@@H](CCCNC(=N)N)C(=O)N[C@@H](CCCCN)C(=O)N1CCC[C@H]1C(=O)N[C@H](C(=O)N[C@H](C(=O)N[C@@H](CS)C(=O)N[C@@H](CCCNC(=N)N)C(=O)N[C@@H](CCCCN)C(=O)N1CCC[C@H]1C(=O)N[C@H](C(=O)N[C@H](C(=O)N[C@@H](CS)C(=O)N[C@@H](CCCNC(=N)N)C(=O)N[C@@H](CCCCN)C(=O)N1CCC[C@H]1C(=O)N[C@H](C(=O)N[C@H](C(=O)N[C@@H](CS)C(=O)N[C@@H](CCCNC(=N)N)C(=O)N[C@@H](CCCCN)C(=O)N1CCC[C@H]1C(=O)N[C@H](C(=O)N[C@H](C(N)=O)[C@@H](C)CC)[C@@H](C)CC)[C@@H](C)CC)[C@@H](C)CC)[C@@H](C)CC)[C@@H](C)CC)[C@@H](C)CC)[C@@H](C)CC)[C@@H](C)CC (H-IICRKPIICRKPIICRKPIICRKPII-NH2)
6.35: selectivity ratio [6] | selectivity ratio [19] | selectivity ratio [21] | selectivity ratio [22] | selectivity ratio [30] | selectivity ratio [43]
16 µM: MIC [3] | MIC (Staphylococcus aureus [9]) | MIC (Escherichia coli [17]) | MIC (Streptococcus agalactiae) | MIC (Staphylococcus aureus [34])
50.8: selectivity ratio [1] | selectivity ratio [8] | selectivity ratio [12] | selectivity ratio [24] | selectivity ratio [28] | selectivity ratio [36]
1 µM: MIC (Escherichia coli [20])
> 128 µM: MHC (Erythrocyte)
32 µM: MIC (Staphylococcus aureus [4]) | MIC (Staphylococcus aureus [11]) | MIC (Staphylococcus aureus [18]) | MIC (Enterococcus faecalis) | MIC (Staphylococcus aureus [42])
8 µM: MIC (Escherichia coli [10]) | MIC [27] | MIC (Escherichia coli [31])
Stable: Stabilty [32]
> 90%: viability at 128 µM [13] | viability at 128 µM [14]
< 5%: hemolysis at up to 128 µM [29]
2 µM: MIC (Escherichia coli [2]) | MIC (Escherichia coli [5]) | MIC (Salmonella typhimurium [16]) | MIC (Escherichia coli [25]) | MIC (Escherichia coli [33]) | MIC (Escherichia coli [37]) | MIC (Salmonella typhimurium [40])
64 µM: MIC (Staphylococcus aureus [7]) | MIC (Staphylococcus aureus [15]) | MIC (Staphylococcus aureus [23]) | MIC (Staphylococcus aureus [26]) | MIC (Staphylococcus aureus [35]) | MIC (Staphylococcus aureus [38])
4 µM: MIC (Salmonella enterica) | MIC (Escherichia coli [39]) | MIC (Escherichia coli [41])
